Tests used:
[1] = system: CD44; experiment: Cell surface CD44 expression by FACS; type: cell-based; details: sub-lethal docetaxel (25 nM), MDA-MB-231
Procedure: DU145 and DU145-TxR were provided by A. Mizokami^63 and cultured in DMEM containing 10% FBS, resistant line included 100 nM paclitaxel in the culture media. During treatments with chemotherapeutics, cells were grown to semi-confluence and treated with indicated concentrations of chemotherapy in serum-containing medium for indicated time points. When small molecule inhibitors were included in treatments, they were added simultaneously with chemotherapy. […] Scrambled siRNA was used as a control. For chemotherapy treatment experiments: Cancer cells were plated at a density of 0.5-1×10^5 cells/ml and allowed to adhere for 24-48 hr. […] Following washes with PBS, adherent cells were trypsinized and re-plated at a density of 1.5-2×10^5 cells/ml and cultured in serum-containing medium. […] A population of drug naïve parent cells were always cultured alongside DTC and fresh media was added at every interval that experimental population (DTC) received fresh media.
Cells were cultured as indicated, removed from culture dishes with accutase stem-pro dissociation reagent (Invitrogen, Carlsbad Calif.) and fixed with 4% paraformaldehyde in PBS for 30 min at RT, washed twice with PBS and blocked in 10% goat serum (v/v). Whenever necessary, cells were permeabilized with 0.05% saponin in PBS. Cells were incubated with CD44-APC (BD biosciences, San Jose, Calif.) overnight at 4 C and analyzed by FACS (C6 Accuri cyomteters Inc Ann Arbor, Mich.), data analysis using FlowJo software (Tree Star Inc., Ashland Oreg.) and Accuri cFlow plus software to obtain and confirm mean fluorescent intensity (GNU.org).

[2] = system: CD44v6 and EGFR; experiment: CD44/CD44v6-EGFR immunocomplex by immunoprecipitation and western blot; type: cell-based; details: MDA-MB-231 cells; docetaxel sublethal dose (10 nM), with or without erlotinib
Procedure: Laemli sample buffer was prepared as a 5× solution containing □-mercaptoethanol as a reducing agent. Immunoprecipitaion was performed using both classic and direct IP kits purchased from Pierce following manufacturer protocols (Thermo Fisher inc. Rockford, Ill.). Briefly, cell lysates were prepared using IP/Lysis Buffer (Thermo Fisher inc. Rockford, Ill.) in the presence of 2× HALT protease/phosphatase inhibitor cocktail (Thermo Fisher inc. Rockford, Ill.). […] Direct immunoprecipitation was performed following manufacturer protocol. […] Protein samples were resolved by SDS-PAGE and transferred to PVDF membranes prior to incubation at 4 C with indicated primary antibodies; NHE-1, GLUT-1 and cytoplasmic domain-targeting EGFR were purchased from Santa Cruz Biotech (Santa Cruz, Calif.). p70S6K and pp70S6K, mTOR and pMTOR, pERM and ERM, Ezrin and pEzrin, pAKT and AKT, pPRAS40 and PRAS40, EGFR and pEGFR antibodies cleaved caspase-3 and β-Actin were purchased from cell signaling technology (Cambridge, Mass.). EGFR and CD44v6 neutralizing antibodies were purchased from R&D (Minneapolis, Minn.). […] Optical densities of western blots were measured using ImageJ open source software (National Institutes of Health) and validated using Adobe CS5.

[3] = system: residual tumor tissue; experiment: Total intratumoral GSH in residual tumor of syngeneic mammary carcinoma; type: in vivo, mice; details: DTX 10 mg/kg i.v., vs vehicle control cohorts
Procedure: G) Total intratumoral GSH obtained from residual tumor tissue homogenate of a syngeneic mammary carcinoma treated with vehicle or DTX (10 mg/kg i.v.). N=4 groups, ***p<0.001.
In vitro detection of glucose uptake was performed using 2-(N-7-Nitrobenz-2-oxa-1,3-diazol-4-yl)Amino)-2-Deoxyglucose (2-NBDG) (Invitrogen, Carlsbad Calif.), dissolved in DMSO to 50 mM. Cells were pre-treated with kinase inhibitors or vehicle for 3 hours in glucose- and phenol red-free media before addition of 50 μM 2-NBDG and subsequently read by FACS ex/em 488/535 nm. ROS was determined by pre-loading cells with CM-DCFDA (1 μM), washed 2 times with PBS and subsequently treated with H2O2 or vehicle; when kinase inhibitors were included in treatment, cells were first incubated with inhibitor for 3 hours prior to CM-DCFDA loading. Fluorescence was then determined by FACS ex/em 488/535 nm. For the following assays, cells were trypsinized and counted by Nexcelom cell counter (Lawrence, Mass.) prior to being subjected to analysis in order to achieve a quantitative value per cell: Reduced glutathione was determined using a colorimetric glutathione recycling system by DTNB following manufacturer protocol (Biovision, Milpitas Calif.). […] Protein synthesis was measured by two means 1. […] Fluorescence was detected by FACS as described below. […] GFP protein translation was determined by fluorescent microscopy. […]

[4] = system: MDA-MB-231 cells; experiment: Single cell, real-time assessment of mitochondrial ROS (MitoSox); type: cell-based; details: docetaxel 50 nM
Procedure: Single cell analysis was performed as follows: Mitosox Red (Invitrogen, Carlsbad Calif.) was incubated with live parent cells for 30 minutes (5 μM), washed and recovered in phenol red-free DMEM with 2% FBS and treated with docetaxel (50 nM). Equivalent exposure times of immunofluorescent microscopy were used at each interval which was originally set at time 0 against an unstained control cell population. Images were captured by a NIKON Eclipse TI-U microscope with a 20× ELDW or 10× or 40× Plan-Apo objective lens (Nikon, Melville N.Y.) and NIS Elements Viewer version 3.22 (Nikon, Melville N.Y.) imaging software. A negative control (non-transfected) cell subset was used to normalize background and autofluorescence following docetaxel treatment. Individual cells were tracked over time and indications of cell death were noted using a 2 TdT-Fluor In Situ apoptosis detection kit (Trevigen Gaithersburg Md.). Cells were plotted as a function of apoptosis induction (or loss of adherence to culture dish indicating cell death) and changes in Mitosox fluorescence over time as shown in main figures.

## CC(=O)O[C@@]12CO[C@@H]1C[C@H](O)[C@@]1(C)C(=O)[C@H](O)C3=C(C)[C@@H](OC(=O)[C@H](O)[C@@H](NC(=O)OC(C)(C)C)c4ccccc4)C[C@@](O)([C@@H](OC(=O)c4ccccc4)[C@H]21)C3(C)C [docetaxel]
[1]
  time to induction of cell surface CD44: ≤ 4 h
[2]
  immunocomplex between CD44v6 and EGFR: induced
[3]
  whole cell GSH in residual tumor: significant global increase
[4]
  time of mitochondrial ROS burst in cells which survive: 4 to 8 h

— US10300070B2, “Metabolically-activated drug conjugates to overcome resistance in cancer therapy” (The Brigham and Women's Hospital, Inc., priority 2014, dated 2019)
